Values joined by “and” are separate entries in the source; they are usually repeats but may differ in a detail not shown here. Identical values can stand only once. Non-standard residues stand in square brackets, D forms with d. Residues, ends and D or L forms follow the SMILES beside them. Pra = C#CC[C@H](N)C(=O)O
Assays:
SARS-CoV-2 Alpha RBD = SARS-CoV-2 Alpha RBD (Severe acute respiratory syndrome coronavirus 2, UniProt P0DTC2); assay: biochemical; type: binding
SARS-CoV-1 RBD = SARS-CoV-1 RBD (Severe acute respiratory syndrome coronavirus, UniProt P59594); assay: biochemical; type: binding
[1] = target: SARS-CoV-1 spike RBD RBD (Severe acute respiratory syndrome coronavirus), P59594; assay: SPR; details: modification not given

Molecule | Kd (SARS-CoV-2 Alpha RBD) [nM] | kon (SARS-CoV-2 Alpha RBD; read-out: ka) [M⁻¹ s⁻¹] | ka (SARS-CoV-2 Alpha RBD; spr) | Kd (SARS-CoV-1 RBD) [nM] | kon (SARS-CoV-1 RBD; read-out: ka) [M⁻¹ s⁻¹] | Kd [1] [nM]
C#CC[C@H](NC(=O)[C@H](CC(C)C)NC(=O)[C@H](CCCCN)NC(=O)[C@@H](NC(=O)[C@@H](NC(=O)[C@H](CC(C)C)NC(=O)[C@H](CC(N)=O)NC(=O)[C@H](Cc1ccc(O)cc1)NC(=O)[C@@H](NC(=O)[C@H](CCC(=O)O)NC(=O)[C@H](Cc1ccc(O)cc1)NC(=O)[C@H](CC(C)C)NC(=O)[C@@H]1CCCN1C(=O)[C@H](Cc1ccc(O)cc1)NC(=O)[C@H](CCSC)NC(=O)[C@H](CCC(N)=O)NC(=O)[C@H](C)NC(=O)[C@H](CC(C)C)NC(=O)[C@@H](NC(=O)[C@H](CO)NC(=O)[C@@H](N)CCC(N)=O)[C@@H](C)O)[C@@H](C)CC)[C@@H](C)O)C(C)C)C(N)=O [a2] (H-QSTLAQMYPLYEIYNLTVKL[Pra]-NH2) | 89 ± 5 | 59300 | 5,66e4 M-1s-1 and 6,08e4 M-1s-1 | 21 ± 5 | 85900 | –
QSTLAQMYPLYEIYNLTVKL [ACE2 epitope a2] | – | – | – | – | – | 21
